Assay results taken from US7687508B2, “Cyclic derivatives as modulators of chemokine receptor activity” (Bristol-Myers Squibb Company, priority 2006, dated 2010).

What was measured:
human CCR2 [1] = biological target: T1, human CCR2 (Homo sapiens, UniProt P41597); test: THP-1 binding (CCR2, 125I-human MCP-1 tracer); design: THP-1 human monocytic leukemic cell line, which expresses endogenous CCR2; endogenous in cells; host or cells: THP-1 human monocytic leukemia cells; details: metabolite examples; THP-1 cells, 125I-MCP-1
T1 sequence (P41597 1-360 isoform P41597-2): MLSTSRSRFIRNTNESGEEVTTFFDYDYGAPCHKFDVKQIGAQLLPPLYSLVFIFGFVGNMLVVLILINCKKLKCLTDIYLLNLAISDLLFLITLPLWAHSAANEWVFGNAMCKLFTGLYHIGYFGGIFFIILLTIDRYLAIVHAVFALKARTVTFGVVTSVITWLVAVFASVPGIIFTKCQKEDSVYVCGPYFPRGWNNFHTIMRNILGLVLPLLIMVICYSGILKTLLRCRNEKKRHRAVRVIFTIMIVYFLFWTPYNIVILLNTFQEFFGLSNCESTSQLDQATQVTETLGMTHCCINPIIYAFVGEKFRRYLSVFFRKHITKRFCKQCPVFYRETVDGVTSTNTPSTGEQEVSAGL
Description: The human CCR2 binding assay was also established with the THP-1 human monocytic leukemic cell line, which expresses endogenous CCR2, using 125I-human MCP-1 as the tracer ligand. Radioligand competition binding assays were used for assessment of binding affinity of test compounds to the CCR2 receptor. For radioligand competition studies, 100 μl containing 2.5×10^5 THP-1 cells/well (in assay buffer containing 50 mM HEPES, pH7.4, 5 mM MgCl2, 1 mM CaCl2 and 0.5% BSA) were added to 96-well assay plates containing test compound in 3-fold serial dilution, with final concentrations ranging from […]. Subsequently, 50 μl ^125I-MCP-1 radioligand at a final concentration of 0.2 nM in assay buffer were added to the reaction. After a 90 minute incubation period at room temperature, the binding reaction was terminated by harvesting on GF/B filter plates (PerkinElmer Cat. No. 6005177) followed by washing with ice-cold wash buffer (50 mM HEPES, pH 7.4, 0.1% BSA, 0.5 M NaCl) to remove unbound ligand. After washing, the plate was dried for 45 minutes at 60° C. followed by addition of 40 μl MicroScint 20 scintillation fluid, sealed and analyzed by the Packard TopCount reader. […] The competition data was plotted as a percentage inhibition of radioligand specific bound in the absence of test compound (percent of total signal). After correcting for non-specific binding, IC50 values were determined.

human CCR2 [2] = biological target: T1, human CCR2; test: Human peripheral blood mononuclear cell binding (CCR2 binding), 125I-human MCP-1 tracer; design: hPBMCs were isolated from human leukopak (Biological Specialty Inc.); endogenous in cells; host or cells: human peripheral blood mononuclear cells from leukopak (Biological Specialty Inc.); details: metabolite examples; hPBMCs, 125I-MCP-1; read-out: PBMC Binding IC50
Description: See also: Yoshimura et al., J. Immunol. 1990, 145, 292. The human CCR2 binding assay was established with human peripheral blood mononuclear cells (hPBMCs) using ^125I-human MCP-1 as the tracer ligand. hPBMCs were isolated from human leukopak (Biological Specialty Inc.) using a standard protocol with Ficoll-Hypaque (Mediatech Cellgro). Isolated hPBMCs were washed and diluted to 1×10^7/ml in binding buffer (RPMI-1640, 0.1% BSA, 20 mM Hepes, pH 7.4). ^125I-MCP-1 (NEN/Perk Elmer) was diluted to 0.45 nM in binding buffer. The compound was diluted in binding buffer at 3-fold the final concentrations used in the binding assay. The binding assay was performed using a 96-well filter plate (Millipore). Total ^125I-MCP-1 binding was assessed as follows: to each reaction of a total volume of 150 μl were added 5×10^5 cells, 0.15 nM […], and compound such that the final concentration ranged from 0 to 100 nM. The plate was incubated at room temperature for 30 minutes followed by three washes with RPMI-1640, 0.1% BSA, 0.4 M NaCl, 20 mM Hepes, pH 7.4 using a vacuum manifold filtration (Millipore). After washing, the plate was air-dried for 60 minutes at room temperature. This was followed by adding 25 μl of Microscint 20 into each well. The plate was sealed and counted on the Trilux for 1 minute. Non-specific binding was determined in the presence of 300 nM cold MCP-1 (PeproTech Inc.). Specific 1-MCP-1 was calculated as the difference between total and non-specific binding. All conditions were tested in duplicate.

## CC(=O)N[C@@H]1C[C@H](NC(C)(C)C)CC[C@@H]1N1CC[C@H](Nc2nc[n+]([O-])c3ccc(C(F)(F)F)cc23)C1=O [Example 14, N-((1R,2S,5R)-5-(tert-butylamino)-2-((3S)-3-((1-oxido-6-(trifluoromethyl)-4-quinazolinyl)amino)-2-oxo-1-pyrrolidinyl)cyclohexyl)acetamide]
Human CCR2 [1]
  IC50: 0.0199 µM
Human CCR2 [2]
  IC50: 0.0149 ± 0.0052 µM
